How the values were obtained:
[1] = test system: bovine monocyte-derived macrophages; assay: LPS-induced lactate production (LactateGlo); format: cell-based; details: CATH2 24 hr, removal, 3-day rest, LPS 24 hours; vs vehicle
Description: (§1) Peripheral blood mononuclear cells (PBMC) were isolated from bovine blood using ficoll gradients. Bovine monocytes were isolated from PBMC using magnetic assisted cell sorting to positively select for CD14+ cells using anti-human CD14 microbeads (Miltenyi Biotec). Purified bovine blood CD14+ monocytes were differentiated into macrophages using an M2-skewing differentiation factor (recombinant bovine M-CSF) over 7 days then exposed to CATH2 or a vehicle control in the presence of bovine casein to mimic aspects of the mammary gland for 24 hr. Following treatment, vehicle and drug were removed and cells were washed to eliminate residual drug and monocyte-derived macrophages were rested for 3 days in order to assess reprogramming. Following the rest period, a subset of vehicle- and CATH2-trained monocyte-derived macrophages were assessed for epigenetic and transcriptomic changes. The remaining cells were challenged with LPS or E. coli bioparticle labeled with pH-sensitive pHrodo green dye and key parameters for macrophage activation/immune response were assessed including glycolytic activity, surface marker expression, gene expression, cytokine production, phagocytosis, reactive nitrogen species production, and miRNA profiling.
Lactate levels in cell culture supernatant were quantified using LactateGlo® (Promega) according to manufacturer's instructions.

[2] = test system: bovine monocyte-derived macrophages; assay: ChIP-Seq for H3K27ac; format: cell-based; details: after CATH2 exposure and 3-day rest, pre-LPS; vs vehicle
Description: as §1, with “profiling. […]” for “profiling.”

[3] = test system: milk macrophages (CD14+CD172a+ milk cells); assay: In vivo intramammary treatment and E. coli mastitis challenge model; design: species or system lactating dairy cows
Protocol: Healthy lactating dairy cows were treated according to table 1 on day −2 of study, at the AM milking, in the front quarters designated by the allotment, one quarter was treated with CATH2 and the neighboring quarter within the same cow was given vehicle control by intramammary infusion. Following administration of CATH2 and vehicle doses, quarters which received CATH2 or vehicle received an intramammary infusion of live Escherichia coli. The E. coli strain used causes clinical mastitis. Milk samples from CATH2-treated and vehicle control quarters were collected following E. coli challenge for cell isolation to assess macrophage surface marker expression.
Expression of surface markers on bovine monocyte-derived macrophages and cells isolated from bovine milk were assessed using flow cytometry. In brief, for monocyte-derived macrophages, cells were lifted with Accutase, washed, and then incubated with fluorescently tagged antibodies against bovine surface markers of interest (CD163, CD14, CD80, MHC II) and a live/dead stain. In brief, for cells in bovine milk, milk was diluted in MACS Running Buffer, spun, fat layer and supernatant were discarded, and milk cell pellets were preserved in Streck. Preserved milk cells were washed again and then incubated with fluorescently tagged antibodies against bovine surface markers of interest (CD163, CD14, CD80, MHC II, CD172a) and a live/dead stain. Following incubation with live/dead stain and antibodies, labeled cells were washed, and then analyzed on a ZE5 CellAnalyzer (BioRad) for monocyte-derived macrophages and a FACS Canto II (BD) for milk cells. Flow cytometry data were analyzed using FlowJo analysis software (Becton Dickson) to assess relative levels of expression via mean fluorescent intensity for each marker of interest within the live CD14+ cell population (for monocyte-derived macrophages) or within the live CD14+CD172a+ cell population (for milk cells).

[4] = test system: bovine monocyte-derived macrophages; assay: mRNASeq transcriptome analysis; format: cell-based; details: for Number of significantly differentially expressed genes, P < 0.01 & |log2FC| > 1 / Number of significantly differentially expressed genes, P < 0.05 & |log2FC| > 1 / Number of significantly differentially expressed genes, Padj < 0.05 & |log2FC| > 0.585 / Number of significantly differentially expressed genes, Padj < 0.05 & |log2FC| > 1 / Number of significantly differentially expressed genes, Padj < 0.1 & |log2FC| > 1: CATH2_vs_vehicle
Description: as §1
Bovine monocyte-derived macrophages were lysed in Buffer RLT with addition of (3-mercaptoethanol (QIAGEN) and stored at −80° C. until miRNA/mRNA isolations could be performed. Total RNA including miRNA was isolated from cell lysates using the miRNeasy Tissues/Cells Advanced kit (QIAGEN) following the manufacturer's instructions. mRNA and miRNA libraries were prepared using the TruSeq Stranded mRNA Library Prep Kit (Illumina) and QIAseq miRNA Library Kit, respectively (QIAGEN) according to the manufacturer's instructions. Libraries were run on the Illumina NextSeq550 System. Sequencing data were analyzed using CLC Genomics Workbench software and QIAGEN Ingenuity Pathway Analysis (IPA).

[5] = intramammary CATH2 prior to E. coli challenge
[6] = 0 hrs_post_CATH2 (prior to CATH2 treatment)
[7] = 0 hrs_post_LPS (after CATH2 and 3-day rest)

In the case of “RFGRFLRKIRRFRPKVTITIQGSARFG [CATH2, cathelicidin 2 peptide]”, the “LPS-induced lactate production in supernatant” value [1] is reported as “increased lactate production”, the “ChIP-Seq peaks with H3K27ac mark” value [2] is reported as “increased number of peaks with H3K27ac mark” and the “Bacterial counts in milk” value [3, 5] is reported as “reduced bacterial counts in milk”. The “Milk somatic cell counts” value [3, 5] was “lower milk somatic cell counts”, the “Milk macrophage surface marker expression (CD14, CD80, MHC II, CD163)” value ([3]; intramammary CATH2 prior to challenge, 12 hr following live E. coli intramammary challenge, vs vehicle quarter) was “enhanced expression of the same surface markers” and the “CD14 and CD80 gene expression (RNA sequence data)” value ([4]; 8 hr following LPS stimulation, CATH2 vs vehicle) was “significantly upregulated”. For the same sequence, the “Number of significantly differentially expressed genes, P < 0.01 & |log2FC| > 1” value [4, 6] was 0, the “Number of significantly differentially expressed genes, P < 0.05 & |log2FC| > 1” value [4, 6] was 0 and the “Number of significantly differentially expressed genes, Padj < 0.05 & |log2FC| > 0.585” value [4, 6] was 0. The “Number of significantly differentially expressed genes, Padj < 0.05 & |log2FC| > 1” value [4, 6] was 0, the “Number of significantly differentially expressed genes, Padj < 0.1 & |log2FC| > 1” value [4, 6] was 0 and the “Number of significantly differentially expressed genes, P < 0.01 & |log2FC| > 1” value [4, 7] was 169. For the same sequence, the “Number of significantly differentially expressed genes, P < 0.05 & |log2FC| > 1” value [4, 7] was 244, the “Number of significantly differentially expressed genes, Padj < 0.05 & |log2FC| > 0.585” value [4, 7] was 171 and the “Number of significantly differentially expressed genes, Padj < 0.05 & |log2FC| > 1” value [4, 7] was 96. For the same sequence, the “Number of significantly differentially expressed genes, Padj < 0.1 & |log2FC| > 1” value [4, 7] was 134, the “Number of significantly differentially expressed genes, P < 0.01 & |log2FC| > 1” value ([4]; 8 hrs_post_CATH2) was 6 and the “Number of significantly differentially expressed genes, P < 0.05 & |log2FC| > 1” value ([4]; 8 hrs_post_CATH2) was 27. For the same sequence, the “Number of significantly differentially expressed genes, Padj < 0.05 & |log2FC| > 0.585” value ([4]; 8 hrs_post_CATH2) was 0, the “Number of significantly differentially expressed genes, Padj < 0.05 & |log2FC| > 1” value ([4]; 8 hrs_post_CATH2) was 0 and the “Number of significantly differentially expressed genes, Padj < 0.1 & |log2FC| > 1” value ([4]; 8 hrs_post_CATH2) was 0. The “Number of significantly differentially expressed genes, P < 0.01 & |log2FC| > 1” value ([4]; 8 hrs_post_LPS) was 509, the “Number of significantly differentially expressed genes, P < 0.05 & |log2FC| > 1” value ([4]; 8 hrs_post_LPS) was 593 and the “Number of significantly differentially expressed genes, Padj < 0.05 & |log2FC| > 0.585” value ([4]; 8 hrs_post_LPS) was 962. For the same sequence, the “Number of significantly differentially expressed genes, Padj < 0.05 & |log2FC| > 1” value ([4]; 8 hrs_post_LPS) was 479, the “Number of significantly differentially expressed genes, Padj < 0.1 & |log2FC| > 1” value ([4]; 8 hrs_post_LPS) was 532 and the “Number of significantly differentially expressed genes, P < 0.01 & |log2FC| > 1” value ([4]; 24 hrs_post_CATH2) was 11. The “Number of significantly differentially expressed genes, P < 0.05 & |log2FC| > 1” value ([4]; 24 hrs_post_CATH2) was 28, the “Number of significantly differentially expressed genes, Padj < 0.05 & |log2FC| > 0.585” value ([4]; 24 hrs_post_CATH2) was 0 and the “Number of significantly differentially expressed genes, Padj < 0.05 & |log2FC| > 1” value ([4]; 24 hrs_post_CATH2) was 0. The “Number of significantly differentially expressed genes, Padj < 0.1 & |log2FC| > 1” value ([4]; 24 hrs_post_CATH2) was 0, the “Number of significantly differentially expressed genes, P < 0.01 & |log2FC| > 1” value ([4]; 24 hrs_post_LPS) was 328 and the “Number of significantly differentially expressed genes, P < 0.05 & |log2FC| > 1” value ([4]; 24 hrs_post_LPS) was 393. The “Number of significantly differentially expressed genes, Padj < 0.05 & |log2FC| > 0.585” value ([4]; 24 hrs_post_LPS) was 520, the “Number of significantly differentially expressed genes, Padj < 0.05 & |log2FC| > 1” value ([4]; 24 hrs_post_LPS) was 279 and the “Number of significantly differentially expressed genes, Padj < 0.1 & |log2FC| > 1” value ([4]; 24 hrs_post_LPS) was 330. The “DEG related to Rho family signaling” value ([4]; CATH2 vs vehicle) was “downregulated”, the “Type I interferon induced genes (e.g. ISG15, MX2, OAS2)” value ([4]; CATH2 vs vehicle) was “significantly upregulated” and the “Immune response gene expression (IL1A/B, IL6, IL8, IL12, IL23, CCL2, NOS2, IL10)” value ([4]; pre- and post-LPS after CATH2 treatment and 3-day rest, vs vehicle) was “significantly upregulated”.

Reference: patent US20250295732A1, “COMPOSITIONS AND METHODS FOR ACTIVATING INNATE IMMUNITY” (Zoetis Services LLC, priority 2021, published 2025)
